Test results as given in US12570612B2, “Substituted nitrogen heterocyclic compound and anesthetic effect thereof” (priority 2019, dated 2026).
“Also recorded” adds a separate entry of the source. Where two headings read alike, the source gives them in different places. Marks after values point to notes of the source that are not given here.

What was measured:
Sprague-Dawley rats [1] = test: animal or person
Description: (§1) Adult male Sprague-Dawley rats (250-300 g) were selected for the experiment. […] The anesthesia effects of the compounds were assessed in rats using a LORR assay and a period >30 s was considered as an indicator of general anesthesia.

[2] = test system: circulatory function of rats; conditions: rat, in vivo
Description: First, animal models were established. […] At least one week after surgery, data were recorded.
Finally, the pharmacological effects, adverse reactions, and behavioral manifestations of the rats were observed and recorded
After data acquisition, the test was stopped.

Sprague-Dawley rats [3] = assay type: in vivo; conditions: tail vein
Sprague-Dawley rats [4] = assay type: in vivo; conditions: tail vein; remark: listed apart in the source
Sprague-Dawley rats [5] = test: Pharmacological effect and adverse reactions under the equivalent dose (2ED50), Group D compounds; assay type: in vivo
Source text: (§2) Evaluation index: onset time: from the completion of drug injection to the disappearance of forepaw righting reflex in rats; Duration of anesthesia: the time from the disappearance of rat forepaw righting reflex to the recovery of rat forepaw righting reflex; Recovery time of anesthesia: the time from the […] to complete recovery;

Sprague-Dawley rats [6] = test: Pharmacological effect and adverse reactions under the equivalent dose (2ED50), Group C compounds; assay type: in vivo
Source text: as §2

Sprague-Dawley rats [7] = test: Pharmacological characteristics at equivalent doses (2ED50), Group A compounds; assay type: in vivo; conditions: 2ED50, tail vein
Sprague-Dawley rats [8] = test: Continuous infusion at 2 times the MIR for 1 hour, Group B compounds; assay type: in vivo
Sprague-Dawley rats [9] = test system: Sprague-Dawley rats
Description: Adult male Sprague-Dawley rats with body weight ranging from 250 to 300 gm were selected for continuous infusion test. […] Time to recovery of righting reflex from stopping infusion, and time to fully awake from stopping infusion were recorded.

SD rats [10] = test system: SD rats
Description: Experimental Methods: Adult male SD rats with body weight ranging from 250 g to 350 g were selected for continuous infusion test.
Evaluation indexes: the time from the beginning of continuous infusion to the […] of sedation in rats; the time from the cessation of infusion to the restoration of the forepaw turning reflex after 1 hour of continuous infusion; the time from the cessation of infusion to the complete restoration of rats after 1 hour of continuous infusion.

H295R cell line [11] = test: Adrenocortical function in vitro test: secretion of cortisol and corticosterone, Group A compounds; assay type: cell-based; conditions: H295 cells; for EC50: 0.1-10000 nM, HPLC-MS/MS
SD rats [12] = test system: SD rats; remark: listed apart in the source
Method in brief: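 Adult male SD rats (250–350 g) received continuous infusion. Read-outs: time from infusion start to […]; after 1 h infusion, time from stop to return of forepaw turning reflex and to full recovery.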

H295R cell line [13] = test: Adrenocortical function in vitro test: secretion of cortisol and corticosterone, Group B compounds; assay type: cell-based; conditions: H295R cells; for EC50: 0.1-10000 nM, HPLC-MS/MS
Sprague-Dawley rats [14] = test: animal or person; assay type: in vivo; conditions: rats
Source text: Evaluating indicator: The end point of anesthesia: LORR was used as the end point of anesthesia; General anesthesia effect: the disappearance of forepaw righting reflex in rats lasting for 30 seconds is taken as the index of general anesthesia effect; Anesthesia recovery index: the recovery of rat forepaw righting reflex was used as the index of anesthesia recovery.

Sprague-Dawley rats [15] = test: animal or person; assay type: in vivo; conditions: rats; remark: listed apart in the source
Source text: Evaluating indicator: The end point of anesthesia: the disappearance of forepaw righting reflex (lorr) was used as the end point of anesthesia; General anesthesia effect: the disappearance of forepaw righting reflex in rats lasting for 30 seconds is taken as the index of general anesthesia effect; Anesthesia recovery index: the recovery of rat forepaw righting reflex was used as the index of anesthesia recovery.

Sprague-Dawley rats [16] = test: animal or person; remark: listed apart in the source
Description: as §1

[17] = LORR in rats, tail vein, brackets = 95% confidence limit
[18] = 2ED50, tail vein, rats, n=8, unit s
[19] = equivalent dose (2 × ED50), number of rats of n = 8
[20] = equivalent dose (2ED50), number of rats of n = 8
[21] = continuous infusion 2 x MIR 1 hour, rats affected/rats
[22] = after 1 hour continuous infusion at 2 times the MIR, SD rats
[23] = continuous tail vein infusion at 2 times the MIR, SD rats
[24] = read-out: EC50 (Corticosterone)
[25] = LORR, up and down method, tail vein, brackets = 95% confidence limit

COC(=O)C1(OC(=O)c2cncn2[C@H](C)c2ccccc2)CC1 [CPMM, cyclopropyl methoxycarbonyl metamidate, reference compound]
ED50 (Sprague-Dawley rats [1]; [17]): 0.78(0.74-0.82)* mg/kg
Approximate therapeutic index (Sprague-Dawley rats [1]; rats): >10
Minimal lethal dose (Sprague-Dawley rats [1]; rats): >7.8 mg/kg
inhibitory effect on the circulatory function (MAP, HR) [2]: almost no inhibitory effect on the circulatory function
Minimal lethal dose (Sprague-Dawley rats [3]): 20.6 mg/kg
Minimal lethal dose (Sprague-Dawley rats [4]): 20.6 mg/kg
Righting reflex duration (Sprague-Dawley rats [5]; 2ED50, tail vein, rats, n=8): 2.71 ± 0.97 min
Sedation duration (Sprague-Dawley rats [5]; 2ED50, tail vein, rats, n=8): 8.48 ± 2.58 min
Onset time (Sprague-Dawley rats [5]; [18]): <30 s
Adverse reaction: Convulsions (Sprague-Dawley rats [5]; [19]): 0
Adverse reaction: Cough, broken-winded (Sprague-Dawley rats [5]; [19]): 0
Adverse reaction: Euphoria (Sprague-Dawley rats [5]; [19]): 0
Adverse reaction: Four limbs rigidity (Sprague-Dawley rats [5]; [19]): 2
Adverse reaction: Slower breathing, Tetany convulsion (Sprague-Dawley rats [5]; [19]): 0
Adverse reaction: Systemic stiffness, Convulsions, Opisthotonus (Sprague-Dawley rats [5]; [19]): 0
Adverse reaction: Tongue stretching (Sprague-Dawley rats [5]; [19]): 4
Adverse reaction: Tremor (Sprague-Dawley rats [5]; [19]): 2
Righting reflex duration (Sprague-Dawley rats [6]; 2ED50, tail vein, rats, n=8): 2.71 ± 0.97 min
Sedation duration (Sprague-Dawley rats [6]; 2ED50, tail vein, rats, n=8): 8.48 ± 2.58 min
Onset time (Sprague-Dawley rats [6]; [18]): <30 s
Adverse reaction: Convulsions (Sprague-Dawley rats [6]; [20]): 0
Adverse reaction: Cough, broken-winded (Sprague-Dawley rats [6]; [20]): 0
Adverse reaction: Euphoria (Sprague-Dawley rats [6]; [20]): 0
Adverse reaction: Red urine (Sprague-Dawley rats [6]; [20]): 8
Adverse reaction: Slower breathing, Tetany convulsion (Sprague-Dawley rats [6]; [20]): 3
Adverse reaction: Systemic stiffness, Convulsions, Opisthotonus (Sprague-Dawley rats [6]; [20]): 0
Adverse reaction: Tongue stretching (Sprague-Dawley rats [6]; [20]): 4
Adverse reaction: Tremor (Sprague-Dawley rats [6]; [20]): 5
Adverse reaction: the four limbs rigidity (Sprague-Dawley rats [6]; [20]): 4
Onset time (Sprague-Dawley rats [7]): 0.26 ± 0.08 min
Righting reflex duration (Sprague-Dawley rats [7]): 1.62 ± 0.63 min
Recovery time after stopping infusion (Sprague-Dawley rats [8]; after 1 hour continuous infusion at 2 times the MIR, rats): 7 to 8 min
Types and incidence of adverse reactions: Convulsions (Sprague-Dawley rats [8]; [21]): Convulsions (3/6), Tremor
Types and incidence of adverse reactions: Myoclonus (Sprague-Dawley rats [8]; [21]): (5/6), Myoclonus (5/6)
Types and incidence of adverse reactions: Tremor (Sprague-Dawley rats [8]; [21]): (5/6), Myoclonus (5/6)
Onset time (Sprague-Dawley rats [8]; continuous tail vein infusion at 2 times the MIR, emulsion, rats): 3 to 4 min
Recovery time after stopping infusion (Sprague-Dawley rats [9]; LORR maintained for 1 hour, 2 times the MIR): 7 to 8 min
Onset time (Sprague-Dawley rats [9]; continuous infusion, 2 times the MIR): 3 to 4 min
Types and incidence of adverse reactions (Sprague-Dawley rats [9]; continuous infusion, (animals affected/animals)): Convulsions(3/6),; also recorded: Tremor(5/6),; also recorded: Myoclonus(5/6),
After the infusion is stopped: Righting reflex recovery time (SD rats [10]; [22]): 8 to 10 min
Recovery time after stopping infusion (SD rats [10]; [22]): 10 to 15 min
Types and incidence of adverse reactions: Hindlimb rigidity (SD rats [10]; [21]): Hindlimb rigidity(4/6)
Types and incidence of adverse reactions: Red urine (SD rats [10]; [21]): 6/6
Types and incidence of adverse reactions: Tremor (SD rats [10]; [21]): 4/6
Sedation onset time (SD rats [10]; [23]): <5 min
Corticosterone as an indicator to determine the presence of inhibition (H295R cell line [11]): 1 (Mild inhibition (using CPMM as a control))
Cortisol as an indicator to determine the presence of inhibition (H295R cell line [11]): 1 (Mild inhibition (using CPMM as a control))
EC50 (H295R cell line [11]; [24]): > 0.1 µM
EC50 (H295R cell line [11]; read-out: EC50 (Cortisol)): > 0.01 µM
After the infusion is stopped: Righting reflex recovery time (SD rats [12]; [22]): 8 to 10 min
Recovery time after stopping infusion (SD rats [12]; [22]): 10 to 15 min
Types and incidence of adverse reactions: Hindlimb rigidity (SD rats [12]; [21]): Hindlimb rigidity(4/6)
Types and incidence of adverse reactions: Red urine (SD rats [12]; [21]): 6/6
Types and incidence of adverse reactions: Tremor (SD rats [12]; [21]): 4/6
Sedation onset time (SD rats [12]; [23]): <5 min
Corticosterone as an indicator to determine the presence of inhibition (H295R cell line [13]): 1 (Mild inhibition (using CPMM as a control))
Cortisol as an indicator to determine the presence of inhibition (H295R cell line [13]): 1 (Mild inhibition (using CPMM as a control))
EC50 (H295R cell line [13]; [24]): > 0.1 µM
EC50 (H295R cell line [13]; read-out: EC50 (Cortisol)): > 0.01 µM
ED50 (Sprague-Dawley rats [14]; [25]): 0.49(0.45-0.53)* mg/kg
Approximate therapeutic index (Sprague-Dawley rats [14]): 42.0
ED50 (Sprague-Dawley rats [15]; [25]): 0.49(0.45-0.53)* mg/kg
Approximate therapeutic index (Sprague-Dawley rats [15]): 42.0
ED50 (Sprague-Dawley rats [16]; [17]): 0.78(0.74-0.82)* mg/kg
Approximate therapeutic index (Sprague-Dawley rats [16]; rats): >10
Minimal lethal dose (Sprague-Dawley rats [16]; rats): >7.8 mg/kg
